Data as given in US7544709B2, “Derivatives of andrimide and moiramide B having antibacterial properties” (Bayer Healthcare AG, priority 2001, dated 2009).
In brackets after ≈: the same amount, converted by molar mass. Where two headings read alike, the source gives them in different places.

Key:
[1] = tested on: Haemophilus influenzae Spain 7; experiment: Determination of minimum inhibitory concentration (MIC), liquid dilution test; assay type: cell-based; settings: SPAIN7, BHI broth plus 20% bovine serum, 10 μg/ml hemin and 1% Isovitale, 37° C., 18-24 hours, 8-10% CO2
Procedure: (§1) Determination of Minimum Inhibitory Concentration (MIC):
(§2) The MIC is determined in the liquid dilution test. Overnight cultures of the test organisms are diluted to a cell count of 10^5 organisms per ml in Isosensitest medium (manufacturer: Difco) and are incubated with dilutions of the test substances (1:2 dilution states). Exceptions are the tests with S. pneumoniae G9A, which are conducted in BHI broth (Difco) plus 20% bovine serum, and with H. influenzae, which are conducted in BHI broth (Difco) plus 20% bovine serum, 10 μg/ml hemin and 1% Isovitale (Becton Dickinson).
(§3) The cultures are incubated at 37° C. for 18-24 hours; S. pneumoniae and H. influenzae in the presence of 8-10% CO2.
(§4) The lowest concentration of each substance at which there was no longer any visible bacterial growth is defined as the MIC. The MICs in μmol/l of some compounds according to the invention against a series of test organisms are listed by way of example in the table below.

[2] = tested on: Staphylococcus aureus 133; experiment: as above; assay type: cell-based
Procedure: as §1, §2, §3, §4

[3] = described in the literature; cited from earlier work
[4] = Staphylococcus aureus, 133, liquid dilution test, Isosensitest medium, 10^5 organisms per ml, 37° C., 18-24 hours, lowest concentration with no visible growth, read-out: MIC Staphylococcus aureus 133

MIC [1] | MIC [2, 4] | SMILES | MIC ([2]; Staphylococcus aureus, 133, read-out: MIC Staphylococcus aureus 133) | antibacterial activity [3]
62.5 µM | 3.9 µM (≈ 1.92 µg/mL) | CC(C)[C@H](NC(=O)C[C@H](NC(=O)NCc1ccccc1)c1ccccc1)C(=O)[C@@H]1C(=O)NC(=O)[C@H]1C [Example 2, (S)-3-(3-Benzylureido)-N-{(S)-2-methyl-1-[1-((3R,4S)-4-methyl-2,5-dioxopyrrolidin-3-yl)-methanoyl]propyl}-3-phenylpropionamide] | – | –
– | 62.5 µM (≈ 29.9 µg/mL) | CC(C)[C@H](NC(=O)C[C@H](NC(=O)Nc1ccccc1)c1ccccc1)C(=O)[C@@H]1C(=O)NC(=O)[C@H]1C [Example 5, (S)-N-{(S)-2-Methyl-1-[1-((3R,4S)-4-methyl-2,5-dioxopyrrolidin-3-yl)-methanoyl]-propyl}-3-phenyl-3-(3-phenylureido)propionamide] | – | –
62.5 µM | 62.5 µM (≈ 31.8 µg/mL) | COc1ccc(NC(=O)N[C@@H](CC(=O)N[C@H](C(=O)[C@@H]2C(=O)NC(=O)[C@H]2C)C(C)C)c2ccccc2)cc1 [Example 6, (S)-3-[3-(4-Methoxyphenyl)ureido]-N-{(S)-2-methyl-1-[1-((3R,4S)-4-methyl-2,5-dioxopyrrolidin-3-yl)methanoyl]propyl}-3-phenylpropionamide] | – | –
31.3 µM | 15.6 µM (≈ 7.68 µg/mL) | CC(C)[C@H](NC(=O)C[C@H](NC(=O)N(C)c1ccccc1)c1ccccc1)C(=O)[C@@H]1C(=O)NC(=O)[C@H]1C [Example 7, (S)-N-{(S)-2-Methyl-1-[1-((3R,4S)-4-methyl-2,5-dioxopyrrolidin-3-yl)methanoyl]-propyl}-3-(3-methyl-3-phenylureido)-3-phenylpropionamide] | – | –
62.5 µM | 7.8 µM (≈ 4.12 µg/mL) | CC(C)[C@H](NC(=O)CC(NC(=O)Nc1cccc2ccccc12)c1ccccc1)C(=O)[C@@H]1C(=O)NC(=O)[C@H]1C (stereo partly drawn) [Example 9, N-((1s)-2-Methyl-1-{[(3R,4S)-4-methyl-2,5-dioxo-3-pyrrolidinyl]carbonyl}propyl)-3-{[(1-naphthylamino)carbonyl]amino}-3-phenylpropionamide] | – | –
125 µM | 7.8 µM (≈ 4.53 µg/mL) | CC(C)[C@H](NC(=O)CC(NC(=O)Nc1ccc(Cl)c(C(F)(F)F)c1)c1ccccc1)C(=O)[C@@H]1C(=O)NC(=O)[C@H]1C (stereo partly shown) [Example 10] | – | –
125 µM | 31.3 µM (≈ 15.2 µg/mL) | C[C@@H]1C(=O)NC(=O)[C@H]1C(=O)C(NC(=O)C[C@H](NC(=O)OC(C)(C)C)c1ccccc1)C1CCCC1 (stereo partly shown) [Example 33] | – | –
– | – | CC(C)[C@H](NC(=O)CC(NC(=O)Oc1ccc(-c2ccccc2)cc1)c1ccccc1)C(=O)[C@@H]1C(=O)NC(=O)[C@H]1C (stereo partly shown) [Example 35] | 0.98 µM (≈ 0.545 µg/mL) | –
125 µM | 7.8 µM (≈ 4.1 µg/mL) | CC(C)[C@H](NC(=O)C[C@H](NS(=O)(=O)/C=C/c1ccccc1)c1ccccc1)C(=O)[C@@H]1C(=O)NC(=O)[C@H]1C [Example 47, (3S)-N-((1S)-2-Methyl-1-{[(3R,4S)-4-methyl-2,5-dioxo-3-pyrrolidinyl]carbonyl}-propyl)-3-phenyl-3-({[(E)-2-phenylethenyl]sulfonyl}amino)propionamide] | – | –
– | – | C/C=C/C=C/C=C/C(=O)N[C@@H](CC(=O)N[C@H](C(=O)[C@@H]1C(=O)NC(=O)[C@H]1C)C(C)C)c1ccccc1 [andrimid] | – | having antibacterial activity
– | – | C/C=C/C=C/C(=O)N[C@@H](CC(=O)N[C@H](C(=O)[C@@H]1C(=O)NC(=O)[C@H]1C)C(C)C)c1ccccc1 [moiramide B] | – | having antibacterial activity
– | – | C/C=C/C=C/C=C/C(=O)N[C@@H](CC(=O)N[C@H](C(=O)[C@@]1(O)C(=O)NC(=O)[C@H]1C)C(C)C)c1ccccc1 [moiramide C] | – | inactive
